Data published in PMC2217675, “Quantitative High-Throughput Screen Identifies Inhibitors of the Schistosoma mansoni Redox Cascade” (PLoS Neglected Tropical Diseases, 2008).
Read-outs that look alike come from different tables or passages of the source.

Assays:
Assay in all cases: biochemical
S. mansoni TGR/Prx2 [1] = target: T1, S. mansoni TGR/Prx2 (Schistosoma mansoni, UniProt Q962Y6); type: biochemical
T1 sequence (Q962Y6 1-598): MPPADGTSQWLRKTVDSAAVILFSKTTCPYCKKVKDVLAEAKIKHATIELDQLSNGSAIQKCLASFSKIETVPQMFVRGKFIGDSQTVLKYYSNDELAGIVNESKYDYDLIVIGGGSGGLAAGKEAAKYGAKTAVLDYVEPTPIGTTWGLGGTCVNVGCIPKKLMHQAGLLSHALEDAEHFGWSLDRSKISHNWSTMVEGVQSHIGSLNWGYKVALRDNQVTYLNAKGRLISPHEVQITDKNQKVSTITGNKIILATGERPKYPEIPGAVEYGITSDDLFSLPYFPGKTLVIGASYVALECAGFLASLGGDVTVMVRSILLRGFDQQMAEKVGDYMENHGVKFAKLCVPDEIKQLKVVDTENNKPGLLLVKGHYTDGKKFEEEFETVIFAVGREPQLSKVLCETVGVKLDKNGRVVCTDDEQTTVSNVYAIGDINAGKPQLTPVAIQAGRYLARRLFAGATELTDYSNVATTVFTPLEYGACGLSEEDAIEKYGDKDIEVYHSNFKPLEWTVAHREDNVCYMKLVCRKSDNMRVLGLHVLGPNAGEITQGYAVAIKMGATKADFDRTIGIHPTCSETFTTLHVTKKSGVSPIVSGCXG

S. mansoni TGR/Prx2 [2] = target: T1, S. mansoni TGR/Prx2
TGR = target: T2, TGR (Schistosoma mansoni, UniProt Q962Y6)
T2 sequence (Q962Y6 1-598): T1 sequence (Q962Y6 1-598)

[3] = initial high throughput screen of the collection, 25 nM TGR, 50 nM Prx2, read-out: qHTS IC50
[4] = DTNB as substrate, 15 nM TGR, read-out: TGR Assay IC50

| Compound | IC50 (S. mansoni TGR/Prx2 [2]) [nM] | IC50 (TGR) [nM] | other results |
| --- | --- | --- | --- |
| CC1COc2c(N3CCN(C)CC3)c(F)cc3c(=O)c(C(=O)O)cn1c23 (centres unmarked) [Ofloxacin, reference compound] | – | – | activity in qHTS (S. mansoni TGR/Prx2 [1]; primary screen): apparent activator |
| O=C([O-])[C@H]([O-])[C@@H]([O-])C(=O)[O-].O=C([O-])[C@H]([O-])[C@@H]([O-])C(=O)[O-].[K+].[K+].[Sb+3].[Sb+3] [PAT, potassium antimonyl tartrate, reference compound] | – | – | IC50 (S. mansoni TGR/Prx2 [1]; read-out: average IC50 of intraplate control titration): 0.014 ± 0.008 µM |
| O=P(Nc1ccccc1F)(c1ccccc1)c1nc2ccccc2s1 (centres unmarked) [compound 2] | 23000 | 12000 | – |
| O=C(c1ccco1)c1no[n+]([O-])c1C(=O)c1ccco1 [compound 5] | 1500 | 25 | – |
| Cc1nn(C)cc1C(=O)c1no[n+]([O-])c1C(=O)c1cn(C)nc1C [compound 6] | – | – | IC50 (S. mansoni TGR/Prx2 [1]; [3]): 24 µM; IC50 (TGR; [4]): 2000 nM |
| O=C(c1cccs1)c1no[n+]([O-])c1C(=O)c1cccs1 [compound 7] | 1500 | – | IC50 (S. mansoni TGR/Prx2 [1]; [3]): 9.2 µM; IC50 (TGR; [4]): 20 nM |
| COc1ccc(C(=O)c2no[n+]([O-])c2C(=O)c2ccc(OC)cc2)cc1 [compound 8] | 4700 | – | IC50 (S. mansoni TGR/Prx2 [1]; [3]): 10 µM; IC50 (TGR; [4]): 60 nM |
| N#Cc1c(-c2ccccc2)no[n+]1[O-] [compound 9] | – | 1800 | IC50 (S. mansoni TGR/Prx2 [1]): 8.7 µM |
| CCOC(=O)C(C(=O)OCC)c1cc(Br)c2noc3c2c1C(=O)c1ccccc1-3 [compound 10] | > 57000 | 9000 | IC50 (S. mansoni TGR/Prx2 [1]): 0.53 µM |
| COC(=O)C(C(=O)OC)c1cc(Br)c2noc3c2c1C(=O)c1ccccc1-3 [compound 11] | 120 | 80 | – |
| CCCCOc1cc(Br)c2noc3c2c1C(=O)c1ccccc1-3 [compound 12] | – | – | IC50 (S. mansoni TGR/Prx2 [2]; read-out: Confirmation IC50): 840 nM; IC50 (TGR; [4]): 150 nM |
| CC1=CC(=O)NP(=O)(Oc2ccc(Cl)cc2)N1 (centres unmarked) [compound 13] | 420 | 550 | – |
| CC1=CC(=O)NP(=O)(Oc2ccccc2)N1 (centres unmarked) [compound 15] | 2000 | 4000 | – |
| CCOc1ccc(OP2(=O)NC(=O)C=C(C)N2)cc1 (centres unmarked) [compound 16] | 180 | 600 | – |
